These results are taken from patent publication US9233167B2, “Oligomer-opioid agonist conjugates” (NEKTAR THERAPEUTICS, priority 2007, dated 2016).

Like-named read-outs stand apart in the source and are kept apart here.

The subject of data set [1] is CD-1 male mice. Description: Phenylquinone writhing analgesic assay. It counts as in vivo, mouse. The settings on record: pretreatment 30 min before PQ. The procedure:
Mice were treated according to standard protocols. Mice were given a single “pretreatment” dose of a compound lacking covalent attachment of a water-soluble, non-peptidic oligomer (i.e., non-PEG oligomer-modified parent molecule), a corresponding version comprising the compound covalently attached to a water-soluble, non-peptidic oligomer (i.e., the conjugate), or control solution (IV, SC, IP or orally) thirty minutes prior to the administration of the phenylquinone (PQ) solution. Each animal was given an IP injection of an irritant (phenylquinone, PQ) that induces “writhing” which may include: contractions of the abdomen, twisting and turning of the trunk, arching of the back, and the extension of the hindlimbs. Each animal was given an IP injection of PQ (1 mg/kg PQ, 0.1 mL/10 g bodyweight). After the injection, the animals were returned to their observation enclosure and their behavior was observed. Contractions were counted between 35 and 45 minutes after the “pretreatment”. The animals were used once. Each tested article was dosed at a range between 0.1 and 100 mg/kg (n=5-10 animals/dose).
(In writhing tests, fewer writhes than in controls are read as antinociception.)

Data set [2] has as its target cloned human mu opioid receptor (Homo sapiens (Human), UniProt P35372). Description: cell-based. The procedure:
The efficacy of the various PEG-opioid conjugates was measured by their ability to inhibit cAMP formation following receptor activation. Studies were conducted in CHO cells heterologously expressing the cloned human mu, kappa or delta opioid receptors. cAMP was measured using a cAMP HiRange homogenous time-resolved fluorescence assay (HTRF Assay), that is based on a competitive immunoassay principle (Cisbio, Cat.#62AM6PEC).
Briefly, suspensions of cells expressing either the mu, kappa or delta opioid receptors were prepared in buffer containing 0.5 mM isobutyl-methyl xanthine (IBMX). […] EC50 values were calculated for each compound from a sigmoidal dose-response plot of concentrations versus maximum response. To determine if the compounds behaved as full or partial agonists in the system, the maximal response at the highest tested concentrations of compounds were compared to that produced by a known full agonist.

Data set [3] deals with T1, recombinant human mu opioid receptor (Homo sapiens (Human), UniProt P35372). Format: binding. The procedure:
Radioligand displacement was measured using scintillation proximity assays (SPA).
Briefly, serial dilutions of the test compounds were placed in a 96-well plate to which were added SPA beads, membrane and radioligand. The assay conditions for each opioid receptor subtype are described in Table 10 below. The plates were incubated for 8 hours-overnight at room temperature, spun at 1000 rpm to pellet the SPA beads, and radioactivity was measured using the TopCount® microplate Scintillation counter. Specific binding at each concentration of test compound was calculated by subtracting the non-specific binding measured in the presence of excess cold ligand. IC50 values were obtained by non-linear regression of specific binding versus concentration curves and Ki values were calculated using Kd values that were experimentally pre-determined for each lot of membrane preparations.

Data set [4] in a line: Intravenous pharmacokinetics in Sprague-Dawley rats. The settings on record: hydroxycodone series, IV 1 mg/kg, rats, Mean ± SD.
The target in data set [5] is T2, recombinant human delta opioid receptor (Homo sapiens (Human), UniProt P41143). The settings on record: Ki relative to nalbuphine. As for the experimental part: (§1) Using conventional receptor binding assay techniques, several molecules were assayed to determine binding activity at kappa, mu and delta opioid subtypes of opioid receptors.
T2 sequence (P41143 whole entry, looked up): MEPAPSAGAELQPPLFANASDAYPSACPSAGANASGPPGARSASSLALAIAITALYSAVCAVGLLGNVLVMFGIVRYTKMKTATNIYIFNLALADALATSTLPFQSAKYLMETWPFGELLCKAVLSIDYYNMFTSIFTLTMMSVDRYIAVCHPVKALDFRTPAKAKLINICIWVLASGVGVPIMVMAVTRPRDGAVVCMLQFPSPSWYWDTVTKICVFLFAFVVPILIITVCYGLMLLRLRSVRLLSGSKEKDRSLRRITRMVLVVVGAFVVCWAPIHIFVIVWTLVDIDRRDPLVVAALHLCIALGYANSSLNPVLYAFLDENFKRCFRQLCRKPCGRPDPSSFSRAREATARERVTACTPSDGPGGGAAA
(§2) Cells were plated in 24 well plates at a density of 0.2-0.3*10^6 cells/well and washed with assay buffer containing 50 mM Tris.HCl and 5 mM MgCl2 (pH 7.4). Competition binding assays were conducted in whole cells incubated with increasing concentrations of test compounds in the presence of appropriate concentration of radioligand. 0.5 nM ^3H Naloxone, 0.5 nM ^3H Diprenorphine and 0.5 nM ^3H DPDPE were used as the competing radioligands for mu, kappa and delta receptors respectively. Incubations were carried out for two hours at room temperature using triplicate wells at each concentration. At the end of the incubation, cells were washed with 50 mM Tris HCl (pH 8.0), solubilized with NaOH and bound radioactivity was measured using a scintillation counter.
(§3) Specific binding is determined by subtraction of the cpm bound in the presence of 50-100× excess of cold ligand. Binding data assays were analyzed using GraphPad Prism 4.0 and IC50 is generated by non-linear regression from dose-response curves.

Data set [6] addresses T2, recombinant human delta opioid receptor. As to conditions: GTP-γS binding, up to 10 μM. For orientation: GTPγS resists hydrolysis and so accumulates on activated G proteins.
Procedure: The reaction is initiated by 0.3 nM [^35S]GTPγS for an additional 30 minutes incubation period.
Data set [7] deals with recombinant human kappa opioid receptor (Homo sapiens (Human), UniProt P41145). It counts as binding. The procedure: as §1, §2, §3
The target of data set [8] is T1, recombinant human mu opioid receptor. Format: binding. The procedure:
as §1, §2, §3
This is another data set of the same source.

The conditions of data set [9]: rats, 25 mg/kg intravenously, one hour after injection.

The term EC50 denotes the concentration giving half of the maximal effect. A high value points to lower potency in that assay. What is called Ki is the dissociation constant of the complex between target and ligand, obtained from inhibition or displacement. The term Cmax denotes the peak of the concentration-time curve. Broadly, the Vss is the apparent volume that relates the amount in the body to the concentration in plasma or blood. A low value points to confinement near the circulation.

In the case of `COCCO[C@H]1CC[C@@]2(O)[C@H]3Cc4ccc(OC)c5c4[C@@]2(CCN3C)[C@H]1O5` [α-6-mPEG1-O-Hydroxycodone, α-6-mPEG1-O-hydroxycodone], in data set [1], the “ED50 (mPEGn-O-HydroxyCodone series)” value worked out at 6.064 mg/kg. This molecule displayed a 50% effective concentration (EC50) in data set [2] (inhibition of cAMP formation, 3 μM forskolin, CHO cells) of 3840 nM. In addition, the “MU OPIOID RECEPTOR % max effect” value in data set [2] (inhibition of cAMP formation, maximal response vs known full agonist) is recorded as 102%. Further, the Ki in [3] (SPA, CHO-K1 membranes, [3H]DAMGO 6 nM) was found to be 654 nM.

`COCCOCCOCCOCCO[C@H]1CC[C@@]2(O)[C@H]3Cc4ccc(OC)c5c4[C@@]2(CCN3C)[C@H]1O5` [α-6-mPEG4-O-Hydroxycodone, α-6-mPEG4-O-hydroxycodone]: in [4], the AUCinf worked out at 11600 ± 827 ng·min/mL, the CL is listed as 86.5 ± 6.36 mL/min/kg, the highest concentration (Cmax) is 537 ± 31.0 ng/mL and the MRTlast is given as 35.6 ± 2.88 min. In [4], the “T1/2(z)” value is listed as 43.6 ± 3.27 min and the Vss is 3.34 ± 0.113 L/kg. In addition, in [1], the “ED50 (mPEGn-O-HydroxyCodone series)” value turned out to be 17.31 mg/kg. Further, in data set [2], the midpoint of the response, the EC50, lay at 3720 nM and the “MU OPIOID RECEPTOR % max effect” value is given as 109%. Further, the inhibition constant Ki in data set [3] amounted to 893 nM.

In the case of `COCCOCCOCCO[C@H]1CC[C@@]2(O)[C@H]3Cc4ccc(O)c5c4[C@@]2(CCN3CC2CCC2)[C@H]1O5` [6-O-mPEG3-Nalbuphine, 6-O-mPEG3-nalbuphine], in data set [5], the “Fold vs Nalbuphine At DELTA” value is recorded as 0.51. Besides, the “effect at the delta opioid receptor” value in [6] is reported as “no effect”. Moreover, the “Fold vs Nalbuphine at KAPPA” value in [7] amounted to 8.40. Further, in data set [8], the “Fold vs Nalbuphine At MU” value is 1.92. For the same molecule, the “brain:plasma ratio” value in [9] amounted to 0.23.
